Laboratory results: ChEMBL document CHEMBL5236646, “Design, synthesis, and biological evaluation of BRD4 degraders” (Bioorg Med Chem, 2023)
Activity calls are given as the source filed them. The calls are words filed in the database; no cut-off is given here.

Assays:
[1] = system: MRC5; assay: Inhibition of TGF-beta induced activation of human MRC5 cells assessed as downregulation of alpha-SMA protein expression at 0.1 to 10 uM by Western blot analysis; assay type: functional, cell-based; conditions: dose 0.1-10 µM
[2] = target: T1, Protein cereblon/Bromodomain-containing protein 4 (Homo sapiens) (UniProt O60885+Q96SW2); assay: (§1) Protac activity at CRBN/BRD4 in human MV4-11 cells assessed as induction of BRD4 protein degradation by measuring residual activity at 30 nM measured after 1 hr by Western blot analysis (reference value: 100%); assay type: cell-based
[3] = target: T1, Protein cereblon/Bromodomain-containing protein 4 (Homo sapiens); assay: as §1, with “nM preincubated with tert-butyl (S)-2-(4-(4-chlorophenyl)-2,3,9-trimethyl-6H-thieno[3,2-f][1,2,4]triazolo[4,3-a][1,4]diazepin-6-yl)acetate for 2 hrs followed by compound addition and” for “nM”, “6 hrs” for “1 hr”; assay type: cell-based
[4] = target: T1, Protein cereblon/Bromodomain-containing protein 4 (Homo sapiens); assay: Protac activity at CRBN/BRD4 in human MM1.S cells assessed as induction of BRD4 protein degradation by measuring residual activity at 300 nM measured immediately by Western blot analysis (reference value: 317%); assay type: cell-based
[5] = target: T1, Protein cereblon/Bromodomain-containing protein 4 (Homo sapiens); assay: Protac activity at CRBN/BRD4 in human MM1.S cells assessed as induction of BRD4 protein degradation by measuring residual activity at 300 nM measured after 3 hrs by Western blot analysis (reference value: 317%); assay type: cell-based
[6] = target: T1, Protein cereblon/Bromodomain-containing protein 4 (Homo sapiens); assay: Protac activity at CRBN/BRD4 in human MM1.S cells assessed as downregulation of MYC protein expression at 300 nM measured after 3 hrs by Western blot analysis; assay type: cell-based
[7] = target: T1, Protein cereblon/Bromodomain-containing protein 4 (Homo sapiens); assay: Protac activity at CRBN/BRD4 in human MM1.S cells assessed as induction of BRD4 protein degradation by measuring residual activity at 300 nM measured after 6 hrs by Western blot analysis (reference value: 317%); assay type: cell-based
[8] = target: T1, Protein cereblon/Bromodomain-containing protein 4 (Homo sapiens); assay: (§2) Protac activity at CRBN/BRD4 in human MV4-11 cells assessed as induction of BRD4 protein degradation by measuring residual activity at 30 nM preincubated with lenalidomide for 2 hrs followed by compound addition and measured after 6 hrs by Western blot analysis (reference value: 100%); assay type: cell-based
[9] = target: T1, Protein cereblon/Bromodomain-containing protein 4 (Homo sapiens); assay: Protac activity at CRBN/BRD4 in human MM1.S cells assessed as induction of BRD4 protein degradation by measuring residual activity at 300 nM measured after 9 hrs by Western blot analysis (reference value: 317%); assay type: cell-based
[10] = target: T1, Protein cereblon/Bromodomain-containing protein 4 (Homo sapiens); assay: Protac activity at CRBN/BRD4 in human MM1.S cells assessed as induction of BRD4 protein degradation by measuring residual activity at 300 nM measured after 1 hr by Western blot analysis (reference value: 317%); assay type: cell-based
[11] = target: T1, Protein cereblon/Bromodomain-containing protein 4 (Homo sapiens); assay: Protac activity at CRBN/BRD4 in human MM1.S cells assessed as induction of BRD4 protein degradation by measuring residual activity at 0.09 uM incubated for 3 hrs by Western blot analysis relative to control; assay type: cell-based
[12] = target: T1, Protein cereblon/Bromodomain-containing protein 4 (Homo sapiens); assay: Protac activity at CRBN/BRD4 in human MM1.S cells assessed as induction of BRD4 protein degradation by measuring residual activity at 0.03 uM incubated for 3 hrs by Western blot analysis relative to control; assay type: cell-based
[13] = Inhibition of TGF-beta induced activation of human MRC5 cells assessed as residual BRD4 protein level at 0.1 uM by Western blot analysis (reference value: 96%); assay type: functional
[14] = Inhibition of TGF-beta induced activation of human MRC5 cells assessed as residual BRD4 protein level at 0.5 uM by Western blot analysis (reference value: 96%); assay type: functional
[15] = Inhibition of TGF-beta induced activation of human MRC5 cells assessed as residual BRD4 protein level at 5 uM by Western blot analysis (reference value: 96%); assay type: functional
[16] = Inhibition of TGF-beta induced activation of human MRC5 cells assessed as residual BRD4 protein level at 10 uM by Western blot analysis (reference value: 100%); assay type: functional
[17] = target: T1, Protein cereblon/Bromodomain-containing protein 4 (Homo sapiens); assay: Protac activity at CRBN/BRD4 in human MV4-11 cells assessed as induction of BRD4 protein degradation by measuring residual activity at 30 nM measured after 6 hrs by Western blot analysis (reference value: 100%); assay type: cell-based
[18] = target: T1, Protein cereblon/Bromodomain-containing protein 4 (Homo sapiens); assay: Protac activity at CRBN/BRD4 in human MV4-11 cells assessed as induction of BRD4 protein degradation by measuring residual activity at 0.003 uM incubated for 3 hrs by Western blot analysis relative to control; assay type: cell-based
[19] = target: T1, Protein cereblon/Bromodomain-containing protein 4 (Homo sapiens); assay: Protac activity at CRBN/BRD4 in human MV4-11 cells assessed as induction of BRD4 protein degradation by measuring residual activity at 0.001 uM incubated for 3 hrs by Western blot analysis relative to control; assay type: cell-based
[20] = target: T1, Protein cereblon/Bromodomain-containing protein 4 (Homo sapiens); assay: Protac activity at CRBN/BRD4 in human MV4-11 cells assessed as induction of BRD4 protein degradation by measuring residual activity at 100 nM measured after 6 hrs by Western blot analysis (reference value: 100%); assay type: cell-based
[21] = target: T1, Protein cereblon/Bromodomain-containing protein 4 (Homo sapiens); assay: Protac activity at CRBN/BRD4 in human MM1.S cells assessed as induction of BRD4 protein degradation by measuring residual activity at 100 nM measured after 6 hrs by Western blot analysis (reference value: 100%); assay type: cell-based
[22] = target: T1, Protein cereblon/Bromodomain-containing protein 4 (Homo sapiens); assay: Protac activity at CRBN/BRD4 in human MM1.S cells assessed as induction of BRD4 protein degradation by measuring residual activity at 300 nM measured after 6 hrs by Western blot analysis (reference value: 100%); assay type: cell-based
[23] = target: T1, Protein cereblon/Bromodomain-containing protein 4 (Homo sapiens); assay: Protac activity at CRBN/BRD4 in human MM1.S cells assessed as induction of BRD4 protein degradation by measuring residual activity at 0.01 uM incubated for 3 hrs by Western blot analysis relative to control; assay type: cell-based
[24] = target: T1, Protein cereblon/Bromodomain-containing protein 4 (Homo sapiens); assay: Protac activity at CRBN/BRD4 in human MV4-11 cells assessed as induction of BRD4 protein degradation by measuring residual activity at 1 nM measured after 6 hrs by Western blot analysis (reference value: 100%); assay type: cell-based
[25] = system: MRC5; assay: Inhibition of TGF-beta induced activation of human MRC5 cells assessed as downregulation of COL-1 protein expression at 0.1 to 10 uM by Western blot analysis; assay type: functional, cell-based; conditions: dose 0.1-10 µM
[26] = target: T1, Protein cereblon/Bromodomain-containing protein 4 (Homo sapiens); assay: as §2, with “MM1.S” for “MV4-11”, “300” for “30”, “tert-butyl (S)-2-(4-(4-chlorophenyl)-2,3,9-trimethyl-6H-thieno[3,2-f][1,2,4]triazolo[4,3-a][1,4]diazepin-6-yl)acetate” for “lenalidomide”; assay type: cell-based
[27] = target: T1, Protein cereblon/Bromodomain-containing protein 4 (Homo sapiens); assay: Protac activity at CRBN/BRD4 in human MM1.S cells assessed as induction of BRD4 protein degradation by measuring residual activity at 10 nM measured after 6 hrs by Western blot analysis (reference value: 100%); assay type: cell-based
[28] = target: T1, Protein cereblon/Bromodomain-containing protein 4 (Homo sapiens); assay: Protac activity at CRBN/BRD4 in human MV4-11 cells assessed as induction of BRD4 protein degradation by measuring residual activity at 10 nM measured after 6 hrs by Western blot analysis (reference value: 100%); assay type: cell-based
[29] = target: T1, Protein cereblon/Bromodomain-containing protein 4 (Homo sapiens); assay: Protac activity at CRBN/BRD4 in human MV4-11 cells assessed as induction of BRD4 protein degradation by measuring residual activity at 3 nM measured after 6 hrs by Western blot analysis (reference value: 100%); assay type: cell-based
[30] = system: MM1.S; assay: Antiproliferative activity against human MM1.S cells assessed as inhibition of cell growth incubated for 72 hrs MTS assay; assay type: functional, cell-based

T1 sequence (Q96SW2 whole entry, looked up, other chains not shown): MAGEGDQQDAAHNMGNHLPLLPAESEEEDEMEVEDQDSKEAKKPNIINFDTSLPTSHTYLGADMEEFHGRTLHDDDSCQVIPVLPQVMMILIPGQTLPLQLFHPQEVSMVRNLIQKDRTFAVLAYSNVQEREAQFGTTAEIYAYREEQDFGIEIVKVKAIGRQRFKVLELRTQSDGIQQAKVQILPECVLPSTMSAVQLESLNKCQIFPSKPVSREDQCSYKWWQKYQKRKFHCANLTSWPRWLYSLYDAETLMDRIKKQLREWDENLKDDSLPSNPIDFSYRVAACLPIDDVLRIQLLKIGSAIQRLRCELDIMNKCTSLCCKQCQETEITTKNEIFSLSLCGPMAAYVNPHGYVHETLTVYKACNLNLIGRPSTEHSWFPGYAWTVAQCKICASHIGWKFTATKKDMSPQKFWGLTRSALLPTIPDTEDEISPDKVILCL

Activity [2]: 62%
Activity [3]: 84%
Activity [4]: 362%
Activity [5]: 66%
Activity [6]: Active
Activity [7]: 18%
Activity [8]: 85%
Activity [9]: 50%
Activity [10]: 129%
Activity [11]: 70%
Activity [12]: 81%
Activity [17]: 13%
Activity [18]: 66%
Activity [19]: 100%
Activity [20]: 28%
Activity [21]: 24%
Activity [22]: 17%
Activity [23]: 93%
Activity [24]: 107%
Activity [26]: 61%
Activity [27]: 62%
Activity [28]: 41%
Activity [29]: 80%
IC50 [30]: 27 nM
SMILES: Cc1sc2c(c1C)C(c1ccc(Cl)cc1)=N[C@@H](CC(=O)NCCCCC(=O)NCCNc1cccc3c1C(=O)N(C1CCC(=O)NC1=O)C3=O)c1nnc(C)n1-2 (stereo not given in full)
inhibition [1]: Active
Activity [13]: 31%
Activity [14]: 26%
Activity [15]: 33%
Activity [16]: 25%
inhibition [25]: Active
